How the values were obtained:
[1] = tested on: CML-T1 cell line; assay: Survival rate (CCK-8 assay) of CML cell line CML-T1; type: cell-based; conditions: imatinib 0.6 μM
Method: (§1) CML cell lines (K562 and CML-T1 cell line) and a normal lymphoblastoid cell line (LCL) were inoculated into a 96-well plate in which DMEM medium containing 10% FBS, 100 units/mL penicillin, and […] streptomycin at a concentration of 3×10^3 cells/well and cultured under the conditions of 37° C. and 5% CO2.
(§2) In particular, the siRNAs used had the nucleotide sequences of SEQ ID NOS: 5 and 176 to 178.

[2] = tested on: K562 cells; assay: Cell cycle analysis (PI staining, FACS) in K562 cells; type: cell-based; conditions: vs negative control siRNA
Method: (§3) CML cell lines (K562 cells and LAMA-84 cells) were treated with the two kinds of siRNAs having the nucleotide sequences of SEQ ID NOS: 5 and 176 to 178 (negative control siRNA or IS3 siRNA) and the cells were immobilized. These cells were subjected to PI staining and applied to FACSVerse (BD Biosciences, Franklin Lakes, N.J., U.S.A.) so as to measure the percentage of the cells located in the G0/G1 phase (FIGS. 11A and 11B).

[3] = tested on: phospho CrkL/CrkL ratio; assay: Phospho-CRKL analysis (Phospho-CrkL (Tyr207) colorimetric cell-based ELISA) in K562
Method: A ratio of phosphorylated CRKL and CRKL (phospho CrkL/CrkL ratio) of the treated cell line was calculated using the Phospho-CrkL (Tyr207) Colorimetric Cell-Based enzyme linked immunosorbent assay (ELISA) kit and the results were compared (FIG. 10).

[4] = tested on: LAMA-84 cells; assay: Cell cycle analysis (PI staining, FACS) in LAMA-84 cells; type: cell-based; conditions: vs negative control siRNA
Method: as §3

[5] = tested on: K562 cell line which induced the T315I mutation; assay: Survival rate (CCK-8 assay) of cell line with induced T315I somatic mutation; type: cell-based
Method: A cell line in which a somatic mutation of T315I was induced was prepared using the Clontech Guide-it CRISPR/Cas9 System and inoculated into a 96-well plate in which DMEM medium containing 10% FBS, 100 units/mL penicillin, and 100 μg/mL streptomycin at a concentration of 3×10^3 cells/well and cultured under the conditions of 37° C. and 5% CO2.

[6] = tested on: cancer cell lines of hematopoietic tissue or lymphatic tissue (LAMA84, KG-1, HL-60, NB-4, MOLM13, CCRF-CEM, U-937); assay: Survival rate (CCK-8 assay) of cancer cell lines of hematopoietic or lymphatic tissue; type: cell-based; conditions: 100 pmol siRNA per 200,000 cells, up to 72 hours; vs siCTRL; all 7 hematopoietic/lymphatic lines
Text: (§4) Specifically, the cancer cell lines of hematopoietic tissue or lymphatic tissue (e.g., LAMA84 (chronic myeloid leukemia in blast crisis), KG-1 (acute myeloid leukemia, FAB M2), HL-60 (acute myeloid leukemia, FAB M2), NB-4 (acute promyelocytic leukemia), MOLM13 (acute myeloid leukemia, FAB M5B), CCRF-CEM (T acute lymphoblastic leukemia), and U-937 (histiocytic lymphoma)); solid cancer cell lines (e.g., IMR-32 (neuroblastoma, KCLB, 10127), SNU-478 (ampulla of vater adenocarcinoma), MG-63 (osteosarcoma), Hs578T (breast invasive ductal carcinoma, KCLB, 30126), U-87MG (glioblastoma), SNU-886 (hepatocellular carcinoma), MIA-PaCa-2 (pancreatic ductal adenocarcinoma), SK-MEL-2 (malignant melanoma), RD (embryonal rhabdomyosarcoma), Hs 746T (gastric adenocarcinoma), and J-82 (bladder carcinoma)) were dispensed into a 96-well plate at a concentration of 3,000 to 5,000 cell lines/well and incubated in a wet incubator (37° C. and 5% CO2) having an environment similar to that of the human body and cultured for 3 days.
(§5) Each of the cultured cells was treated with the two kinds of siRNAs having the nucleotide sequences of SEQ ID NOS: 5 and 176 to 178 (negative control siRNA (siCTRL) or IS3 siRNA) at a concentration of 100 pmol based on 200,000 cells, cultured for up to 72 hours, and the survival rates of these cells were compared by the CCK-8 assay (FIGS. 12A to 12C).

[7] = tested on: normal lymphoblastoid cell line (LCL); assay: Survival rate (CCK-8 assay) of normal lymphoblastoid cell line; type: cell-based
Method: as §1, §2

[8] = tested on: K562; assay: Survival rate (CCK-8 assay) of CML cell line K562; type: cell-based; conditions: imatinib 0.6 μM
Method: as §1, §2

[9] = tested on: solid cancer cell lines (IMR-32, SNU-478, MG-63, Hs578T, U-87MG, SNU-886, MIA-PaCa-2, SK-MEL-2, RD, Hs 746T, J-82); assay: Survival rate (CCK-8 assay) of solid cancer cell lines; type: cell-based; conditions: 100 pmol siRNA per 200,000 cells, up to 72 hours; vs siCTRL; all 11 solid cancer lines
Text: as §4, §5

Molecule	survival rate of the cell line [1]	percentage of the cells located in the G0/G1 phase [2]	phospho CrkL/CrkL ratio ([3]; HMGCLL1 IS3 siRNA and imatinib in combination)	phospho CrkL/CrkL ratio ([3]; treated individually)	percentage of the cells located in the G0/G1 phase [4]	survival rate of the cell line ([5]; siRNA in combination with first generation anticancer agent (imatinib 10 nM))	survival rate of the cell line ([5]; siRNA in combination with second generation anticancer agent (nilotinib or dasatinib 10 nM))	survival rate of the cell line ([5]; siRNA used alone)	survival rate of each cell line [6]	survival rate of the cell line [7]	survival rate of the cell line [8]	survival rate of each cell line [9]
HMGCLL1 IS3 siRNA: siRNA to HMGCLL1 isoform 3: sense GGUACCACAGGUUGCUGCU (SEQ ID NO: 178), antisense AGCAGCAACCUGUGGUACC (SEQ ID NO: 5) (listed as RNA, chemistry not given here)	reduced	increased	reduced to the lowest level	reduced to similar levels	increased	further significantly reduced	further significantly reduced	reduced	significantly reduced	not affected	reduced	significantly reduced
Cc1ccc(NC(=O)c2ccc(CN3CCN(C)CC3)cc2)cc1Nc1nccc(-c2cccnc2)n1 [imatinib, reference compound]	reduced	–	–	–	–	–	–	–	–	–	reduced	–
